# Results: the supplement of paper PMC12698765
# Where a name gives a salt, the structure may show the parent alone. ± gives the standard deviation of the averaged measurements.
# Key:
# [1] = tested on: 409B2 hiPSC (iCRISPR Cas9, FRMD7 editing); test: MMEJ-attributed deletion frequency relative to solvent control (fold (ratio to mock)); higher = more MMEJ outcomes
# Description: (§1)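 Subset screen of 55 drugs tested at 5 concentrations around the effective screening dose, in 409B2 iCRISPR Cas9 hiPSCs editing FRMD7 with a ssDNA donor. Drugs were applied for 24 h. Viability was read by resazurin and editing outcomes by amplicon sequencing (HDR, NHEJ <2 bp microhomology, MMEJ ≥2 bp microhomology). Values are relative to solvent mock controls; two biological replicates.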
# [2] = tested on: 409B2 hiPSC (iCRISPR Cas9, FRMD7 editing); test: HDR (precise edit) frequency relative to solvent control (fold (ratio to mock)); higher = more homology-directed repair outcomes
# Description: as §1
# [3] = tested on: 409B2 hiPSC (iCRISPR Cas9, FRMD7 editing); test: NHEJ-attributed indel frequency relative to solvent control (fold (ratio to mock)); higher = more NHEJ outcomes
# Description: as §1
# [4] = tested on: 409B2 hiPSC (iCRISPR Cas9, FRMD7 editing); test: cell survival relative to solvent control (fold (ratio to mock)); higher = more surviving cells
# Description: as §1
SMILES,MMEJ-attributed deletion frequency ([1]; 20 nM),MMEJ-attributed deletion frequency ([1]; 50 nM),MMEJ-attributed deletion frequency ([1]; 100 nM),MMEJ-attributed deletion frequency ([1]; 200 nM),MMEJ-attributed deletion frequency ([1]; 500 nM),HDR ([2]; 20 nM),HDR ([2]; 50 nM),HDR ([2]; 100 nM),HDR ([2]; 200 nM),HDR ([2]; 500 nM),NHEJ-attributed indel frequency ([3]; 20 nM),NHEJ-attributed indel frequency ([3]; 50 nM),NHEJ-attributed indel frequency ([3]; 100 nM),NHEJ-attributed indel frequency ([3]; 200 nM),NHEJ-attributed indel frequency ([3]; 500 nM),cell survival ([4]; 20 nM),cell survival ([4]; 50 nM),cell survival ([4]; 100 nM),cell survival ([4]; 200 nM),cell survival ([4]; 500 nM),further results
CC(=O)O[C@]1(C(C)=O)CC[C@H]2[C@@H]3C=C(Cl)C4=CC(=O)[C@@H]5C[C@@H]5[C@]4(C)[C@H]3CC[C@@]21C [Cyproterone Acetate] (in DMSO),1.18 ± 0.11,0.986 ± 0.03,0.9921 ± 0.0047,0.915 ± 0.022,0.999 ± 0.017,1.1 ± 0.048,1.119 ± 0.007,1.09 ± 0.054,1.03 ± 0.013,1.14 ± 0.058,0.962 ± 0.045,0.9767 ± 0.0039,0.9929 ± 0.0094,1.01 ± 0.014,0.964 ± 0.042,0.984,1.23,1.12,1.09,1.23,
Nc1ccn([C@@H]2O[C@H](CO)[C@@H](O)[C@@H]2O)c(=O)n1 [Cytarabine hydrochloride] (in DMSO),0.911 ± 0.12,0.897 ± 0.049,1.1 ± 0.021,1.08 ± 0.13,1.04 ± 0.18,0.71 ± 0.068,0.699 ± 0.1,0.625 ± 0.018,0.652 ± 0.11,0.554 ± 0.099,1.02 ± 0.026,1.05 ± 0.022,1.03 ± 0.0015,1.01 ± 0.039,1.04 ± 0.04,1.01,0.968,0.672,0.467,0.161,
NC(=O)CC[C@@H](N)C(=O)O [D-Glutamine] (in H2O),0.971 ± 0.055,0.874 ± 0.034,0.887 ± 0.17,0.933 ± 0.064,0.918 ± 0.092,0.953 ± 0.047,0.985 ± 0.033,0.9265 ± 0.0046,0.985 ± 0.031,0.965 ± 0.055,1.02 ± 0.029,1.03 ± 0.016,1.02 ± 0.028,1.03 ± 0.025,1.01 ± 0.024,0.958,1.03,0.932,1.16,0.888,
O[C@@H]1[C@H](O)[C@H](O)CO[C@H]1O [D-Ribose] (in DMSO),,,,0.939 ± 0.061,1.02 ± 0.1,,,,1.13 ± 0.04,1.01 ± 0.06,,,,0.9958 ± 0.0022,0.999 ± 0.01,,,,1.06,1.16,MMEJ-attributed deletion frequency ([1]; 1000 nM): 0.965 ± 0.026; MMEJ-attributed deletion frequency ([1]; 2000 nM): 1.012 ± 0.0071; MMEJ-attributed deletion frequency ([1]; 5000 nM): 1.02 ± 0.16; HDR ([2]; 1000 nM): 1.13 ± 0.075; HDR ([2]; 2000 nM): 1.05 ± 0.025; HDR ([2]; 5000 nM): 1.06 ± 0.05; NHEJ-attributed indel frequency ([3]; 1000 nM): 0.979 ± 0.013; NHEJ-attributed indel frequency ([3]; 2000 nM): 1 ± 0.012; NHEJ-attributed indel frequency ([3]; 5000 nM): 0.9861 ± 0.0075; cell survival ([4]; 1000 nM): 1.06; cell survival ([4]; 2000 nM): 1.1; cell survival ([4]; 5000 nM): 1.04
"O=C1CN(/N=C/c2ccc(-c3ccc([N+](=O)[O-])cc3)o2)C(=O)N1 [Dantrolene, sodium salt] (in DMSO)",,,,,,,,,,,,,,,,,,,,,MMEJ-attributed deletion frequency ([1]; 2000 nM): 1.09 ± 0.25; MMEJ-attributed deletion frequency ([1]; 5000 nM): 0.966 ± 0.099; MMEJ-attributed deletion frequency ([1]; 10000 nM): 0.9399 ± 0.0032; MMEJ-attributed deletion frequency ([1]; 20000 nM): 0.997 ± 0.048; MMEJ-attributed deletion frequency ([1]; 50000 nM): 0.979 ± 0.13; HDR ([2]; 2000 nM): 1.04 ± 0.091; HDR ([2]; 5000 nM): 0.873 ± 0.12; HDR ([2]; 10000 nM): 0.851 ± 0.068; HDR ([2]; 20000 nM): 0.547 ± 0.039; HDR ([2]; 50000 nM): 0.508 ± 0.039; NHEJ-attributed indel frequency ([3]; 2000 nM): 0.941 ± 0.052; NHEJ-attributed indel frequency ([3]; 5000 nM): 0.9996 ± 0.0056; NHEJ-attributed indel frequency ([3]; 10000 nM): 1.06 ± 0.0076; NHEJ-attributed indel frequency ([3]; 20000 nM): 1.199 ± 0.0027; NHEJ-attributed indel frequency ([3]; 50000 nM): 1.24 ± 0.034; cell survival ([4]; 2000 nM): 0.934; cell survival ([4]; 5000 nM): 1.39; cell survival ([4]; 10000 nM): 1.14; cell survival ([4]; 20000 nM): 1.33; cell survival ([4]; 50000 nM): 1.33
CCCCc1oc2ccc(NS(C)(=O)=O)cc2c1C(=O)c1ccc(OCCCN(CCCC)CCCC)cc1 [Dronedarone HCl] (in DMSO),,,,0.537 ± 0.76,0.463 ± 0.65,,,,0.891 ± 0.2,0.835 ± 0.2,,,,0.991 ± 0.011,1.04 ± 0.043,,,,1.15,1.01,MMEJ-attributed deletion frequency ([1]; 1000 nM): 0.895 ± 0.18; MMEJ-attributed deletion frequency ([1]; 2000 nM): 0.923 ± 0.16; MMEJ-attributed deletion frequency ([1]; 5000 nM): 1.18 ± 0.34; HDR ([2]; 1000 nM): 0.734 ± 0.051; HDR ([2]; 2000 nM): 0.513 ± 0.071; HDR ([2]; 5000 nM): 0.556 ± 0.012; NHEJ-attributed indel frequency ([3]; 1000 nM): 1.01 ± 0.013; NHEJ-attributed indel frequency ([3]; 2000 nM): 0.958 ± 0.093; NHEJ-attributed indel frequency ([3]; 5000 nM): 1.06 ± 0.092; cell survival ([4]; 1000 nM): 0.696; cell survival ([4]; 2000 nM): 0.521; cell survival ([4]; 5000 nM): 0.261
